Test results published in PubChem BioAssay AID1918994 (Molecular Pharmacology Branch, DTP, NCI, 2023).
“And” between values parts separate entries of the source, which are not always exact repeats. Equal entries are not always repeated.

System: 292921-168-R-J2-PDC complex spheroid growth
Assay: Anticancer human tumor 292921-168-R-J2-PDC patient-derived pancreatic carcinoma cell line growth inhibition [AhR]
Settings: for viability, T/C: stronger effect = lower value; for IC50: curve of compound
Description: Multicellular complex tumor spheroid response to aryl hydrocarbon receptor antagonists in combination with a variety of drugs and investigational agents in selected tumor cell lines
The current study was undertaken to assess response to aryl hydrocarbon receptor antagonists in combination with standard-of-care drugs and investigational agents in solid tumor complex spheroid models. Complex spheroids include a stromal component modeled by human endothelial cells (HUVEC) and fibroblasts modeled by human mesenchymal stem cells (MSCs). The concentration ranges selected for each drug and investigational agent were based upon clinically achievable concentrations if the clinical Cmax of the agent was known.
Compounds. The drugs and investigational agents: BAY 2416964 (NSC825713), GNF351 (NSC835774), CH-223191 (NSC835775), CPI-455 (NSC825282), aza-TdCyd (NSC777586), decitabine (NSC127716), belinostat (NSC758774), entinostat (NSC756642), pevonedistat (NSC761192), tazemetostat (NSC777109), talazoparib (NSC765396), olaparib (NSC753686), selinexor (NSC780203), nedisertib (M3814, NSC802822), bortezomib (NSC756655), venetoclax (NSC766270), doxorubicin (NSC123127), elimusertib (BAY189344, NSC800525), ceralasertib (AZD6738, NSC777638), TAK-243 (NSC785004), alisertib (NSC759677), etoposide (NSC141540), topotecan (NSC609699), eribulin (NSC707389), gemcitabine (NSC613327), carboplatin (NSC241240), cisplatin (NSC119875), and SN-38 (NSC673596) were obtained from the National Cancer Institute (NCI) Developmental Therapeutics Program Chemical Repository (32). The FDA-approved anticancer drug set is available from the Developmental Therapeutics Program at https://dtp.cancer.gov/organization/dscb/obtaining/available plates.htm. […] The stock solutions were prepared in dimethyl sulfoxide (DMSO, Sigma-Aldrich, St. Louis, MO, cat. D2650), except for the platinum compounds which were prepared in saline (Quality Biological, Gaithersburg, MD, cat. 114-055-101), at 800-fold the tested concentration and stored at -70 degrees C prior to their use. All drugs and investigational agents were tested over a range starting from a high concentration at or near the clinical Cmax and decreasing in half-log increments. If the clinical Cmax for an agent had not been determined, the highest concentration tested was 10 microM (Table 1).
Cell Culture. All cells were maintained in an incubator at 37 degrees C and 5% CO2 with 95% humidity. The PDC lines were cultured according to standard operating procedures established by the NCI PDMR (https://pdmr.cancer.gov). Briefly, all PDCs were thawed and cultured in Matrigel-coated flasks prepared with a working solution of 1X Ham's F-12 nutrient mix, without supplementation (Invitrogen, Waltham, MA, cat. 11765054), 100 U/mL penicillin-streptomycin (Invitrogen, cat. 15140122), and 2.5% Matrigel (Corning Inc., Corning, NY, cat. 354248) for the first three passages. All PDCs were cultured in complete DMEM/F-12 media containing advanced DMEM/F-12 (Invitrogen, cat. 12634028), 4.9% defined fetal bovine serum, heat inactivated (HyClone Laboratories Inc., Logan, UT, cat. SH30070.03HI), 389 ng/mL hydrocortisone (Sigma-Aldrich, cat. H4001), 9.7 ng/mL human EGF recombinant protein (Invitrogen, cat. PHG0313), 23.4 microg/mL adenine (Sigma-Aldrich, cat. A2786), 97.3 U/mL penicillin-streptomycin (Invitrogen, cat. 15140122), 1.9 mM L-glutamine (Invitrogen, cat. 25030081), and 9.7 microM Y-27632 dihydrochloride (Tocris Bioscience, Bristol, United Kingdom, cat. 1254). The PDCs were cultured in complete DMEM/F12 media without 10 microM Y-27632 dihydrochloride for at least two passages prior to the screen. The established cell lines NCI-H1341 and […] were cultured in DMEM/F-12, HEPES (Invitrogen, cat. 11330032), 5% defined fetal bovine serum (HyClone Laboratories Inc., cat. SH30070.03), ITS premix universal culture supplement [insulin (5 microg/mL), transferrin (5 microg/mL), and selenious acid (5 ng/mL)] […]
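Further: spheroids exposed to compounds for seven days after three days of growth.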

Structure (SMILES) | viability, T/C (compound 0.0316 µM) | viability, T/C (compound 0.1 µM) | viability, T/C (compound 0.316 µM) | viability, T/C (compound 1 µM) | viability, T/C (compound 3.16 µM) | viability, T/C (compound 10 µM) | IC50 | viability, T/C (compound 0.000316 µM) | viability, T/C (compound 0.001 µM) | viability, T/C (compound 0.00316 µM) | viability, T/C (compound 0.01 µM) | viability, T/C (compound 0.000949 µM) | viability, T/C (compound 0.003 µM) | viability, T/C (compound 0.00949 µM) | viability, T/C (compound 0.03 µM) | viability, T/C (compound 0.0949 µM) | viability, T/C (compound 0.3 µM) | viability, T/C (compound 0.949 µM) | viability, T/C (compound 3 µM)
COc1ccc([C@@H](O)c2cc(-c3ncnc4cc(N5CCOCC5)ccc34)c(F)cc2Cl)nn1 | 92.7% and 96.3% and 98.8% | 99.2% and 95.5% and 101% | 88% and 86.4% and 84.7% | 64.6% and 70.2% and 62.2% | 42.2% and 44.8% and 43.1% | 27.6% and 24.4% and 25.5% | 2060 nM and 2490 nM and 2000 nM |  |  |  |  |  |  |  |  |  |  |  | 
COc1cccc2c1C(=O)c1c(O)c3c(c(O)c1C2=O)CC(O)(C(=O)CO)CC3OC1CC(N)C(O)C(C)O1 (stereo unspecified) | 37.4% and 25.9% and 34.4% | 26.1% and 17.6% and 21.9% | 10.9% and 4.94% and 7.46% | 0.32% (2×) and 0.28% | 0.76% (2×) and 0.73% | 2.02% and 2.08% and 3.06% | < 31.6 nM |  |  |  |  |  |  |  |  |  |  |  | 
Cc1cncc(-c2nc(NCCc3c[nH]c4ccccc34)c3ncn(C(C)C)c3n2)c1 |  | 90.8% [middle of 20 runs] | 89.1% [middle of 20 runs] | 80.5% [middle of 20 runs] |  | 47.8% [middle of 20 runs] |  |  |  |  |  |  |  |  |  |  |  |  | 
Cn1ncnc1C1c2n[nH]c(=O)c3cc(F)cc(c23)NC1c1ccc(F)cc1 (stereo unspecified) | 88% and 97.5% and 90.3% | 91.5% and 80.2% and 86% |  |  |  |  | > 100 nM | 101% and 103% and 106% | 103% and 111% and 95.4% | 96.3% and 91.7% and 97.4% | 96.2% and 96.3% and 97.7% |  |  |  |  |  |  |  | 
NS(=O)(=O)OCC1CC(n2ccc3c(NC4CCc5ccccc54)ncnc32)CC1O (stereo unspecified) | 126% and 115% and 113% | 106% and 81.2% and 99.9% | 27.1% and 16.2% and 25.9% | 6.6% and 3.53% and 5.82% | 5.73% and 3.02% and 4.02% | 5.17% and 3.01% and 3.79% | 226 nM and 174 nM and 217 nM |  |  |  |  |  |  |  |  |  |  |  | 
Nc1ccccc1NC(=O)c1ccc(CNC(=O)OCc2cccnc2)cc1 | 76.9% and 70.7% and 72.6% | 61.6% and 61% and 53% | 44.2% and 57.2% and 42.1% | 38.7% and 39.4% and 26.1% | 24.4% and 26.4% and 21.3% | 11.8% and 10.3% and 8.62% | 267 nM and 460 nM and 151 nM |  |  |  |  |  |  |  |  |  |  |  | 
Nc1ccn(C2OC(CO)C(O)C2(F)F)c(=O)n1 (stereo unspecified) | 11.7% and 10.6% and 9.71% | 9.82% and 10.9% and 7.67% | 9.66% and 9.32% and 10.4% | 10.1% and 11.1% and 8.88% | 9.41% and 11.4% and 8.79% | 7.29% and 6.09% and 6.67% | < 31.6 nM |  |  |  |  |  |  |  |  |  |  |  | 
Nc1ncn(C2CC(O)C(CO)O2)c(=O)n1 (stereo unspecified) | 95.7% and 100% and 89.4% | 93.7% and 93.1% and 77.7% | 86.8% and 83% and 89% | 76.3% and 76.8% and 78.2% |  |  | > 1000 nM |  |  | 107% and 102% and 96.8% | 99.8% and 97.5% and 103% |  |  |  |  |  |  |  | 
Nc1ncn(C2CC(O)C(CO)S2)c(=O)n1 (stereo unspecified) |  |  |  |  |  |  | > 300 nM |  |  |  |  | 108% and 106% and 99.4% | 111% and 90.8% and 101% | 107% and 98.6% and 93.5% | 90.9% and 104% and 96.8% | 90.8% and 93.8% and 95.5% | 88.6% and 81.2% and 78.3% |  | 
O=C(C=Cc1cccc(S(=O)(=O)Nc2ccccc2)c1)NO | 68.6% and 72.8% and 73.1% | 60.2% and 62% and 60% | 45.1% and 51.2% and 40.3% | 40.8% and 41.1% and 34.5% | 36.6% and 37.4% and 31.4% | 3.45% and 3.29% and 1.56% | 424 nM and 553 nM and 249 nM |  |  |  |  |  |  |  |  |  |  |  | 
O=C(C=Cn1cnc(-c2cc(C(F)(F)F)cc(C(F)(F)F)c2)n1)NNc1cnccn1 |  |  |  |  |  |  | 191 nM and 154 nM and 129 nM |  |  |  |  |  |  | 104% and 95% and 86.6% | 97.2% and 93% and 80.9% | 64.4% and 58.7% and 54.5% | 39.5% and 34.5% and 32.4% | 25.6% and 18.9% and 22.2% | 15.2% and 10.5% and 13.3%
O=C(c1cc(Cc2n[nH]c(=O)c3ccccc23)ccc1F)N1CCN(C(=O)C2CC2)CC1 | 110% and 97.3% and 99.3% | 110% and 100% and 95.6% | 95.5% and 93.5% and 84.8% | 98.6% and 97.8% and 91.6% | 102% and 92.5% and 83.3% | 80% and 74.5% and 68% | > 10000 nM |  |  |  |  |  |  |  |  |  |  |  | 
